Experimental data from US20250249110A1, “ANTIMICROBIAL PEPTIDE DERIVATIVE AND USE THEREOF” (SICHUAN UNIVERSITY, priority 2016, published 2025).
Where a SMILES comes first, the peptide text is derived from it. The star is where a group is joined. Succinyl(4-O-cholesteryl) = CC(C)CCC[C@@H](C)[C@H]1CC[C@H]2[C@@H]3CC=C4C[C@@H](OC(=O)CCC(=O)*)CC[C@]4(C)[C@H]3CC[C@]12C

How the values were obtained:
[1] = Morphology under transmission electron microscopy; assay type: physicochemical; settings: TEM
Experimental: As the DP7 is positively charged, the DP7-C micelle formed by self-assembly is also positively charged in aqueous solution, showing its potential as a non-viral gene transmission vector, especially siRNA transmission vector. The morphology of DP7-C micelles formed by self-assembly and DP7-C/siRNA complexes is observed under a transmission electron microscopy (H-6009IV, Hitachi, Japan). First, 1 mg\mL of micellar solution is diluted with distilled water and coated on a copper mesh, covered with nitrocellulose, then negatively stained with phosphotungstic acid, dried at room temperature and observed under an electron microscope. […] Under the electron microscope, the particle size of DP7-C micelles is about 60 nm, and the particle size of DP7-C micelle/siRNA complex is about 100 nm (see FIGS. 14A and 14B for the results).

YAC-1 cells = assay: NK cell killing activity after immunization (LDH release); assay type: cell-based, mouse; settings: splenic lymphocytes 48 h after primary immunization
Experimental: Innate immunity plays an important role in anti-tumor immunity. We detected the killing activity of mouse NK cells after immunization with DP7-C adjuvant.
After 48 h of primary immunization, kill the mice by the cervical dislocation, and isolate splenic lymphocyte from the lymphocyte separation medium as effector cells.
Resuscitate and incubate YAC-1 cells, transfer one day before the experiment, and keep 2×10^6/20 ml. Stain with trypan blue. Available when activity is more than 95%.
• (1) Add target cells and effector cells into a 96-well plate (ratio of target cells to effector cells: 1:25, 1:50, 1:100, 1:200 as per 10,000 target cells per well) and incubate at 37° C. for 4 h. • (2) Centrifuge at 250 g, and take supernatant for LDH releasing test.

dendritic cells (DC) = assay: Maturation of dendritic cells (flow cytometry); assay type: cell-based, mouse; settings: 16 h incubation; vs NS group, statistically significant
Experimental: The maturation of dendritic cells (DC) largely determines the immune response or tolerance of the body. […] Therefore, we detected the effect of DP7-C adjuvant on dendritic cell maturation by flow cytometry.
The experimental steps are as follows: • (1) Isolate C57/BL mouse primary bone marrow cells and incubate in the induced medium containing 10 ng/ml of GM-CSF and 10 ng/ml of IL-4 for 5 days. • (2) Add the DP7-C adjuvant into DC cell culture, mix well, and incubate for 16 h. • (3) Collect the stimulated DC cells, wash them twice with PBS, re-suspend the cells in 100 μL of PBS, add 1 μL of anti-mouse CD16/CD32, and block at 4° C. for 30 min. • (4) Wash with PBS for 3 times, add 1 μg of FITC-anti-CD80, APC-anti-CD86 and PE-anti-MHC-II, incubate at room temperature for 30 min, wash PBS for 3 times and re-suspend in 200 μL of PBS for flow cytometry.

[2] = test system: B16 metastatic melanoma in the lung; assay: B16 mouse model of metastatic melanoma in the lung; assay type: in vivo
Experimental: In order to further characterize the application potential of DP7-C micelles in tumor therapy, we established a B16 mouse model of metastatic melanoma in the lung and used DP7-C to transmit anti-VEGF siRNA therapeutic genes for therapeutic research. • (1) On day 0, female C57 mice aged 6-8 weeks are […] inoculated with 0.1 mL of cell suspension (containing about 2.5×10^5 B16 cells). • (2) On day 3, mice are randomly divided into 4 groups, 8 mice for each group, and are labeled. • (3) Mice are injected with 7 doses of normal saline (blank control group), blank DP7-C micelle (60 μg), DP7-C/no-sense control siRNA complex (60 μg/12 μg) or DP7-C/VEGF siRNA complex (60 μg/12 μg) respectively through tail veins. • (4) On day 20, when the mice in the control group are already very weak, all the mice are killed by cervical dislocation; the tumor tissues in the lung as well as the heart, liver, spleen, lung and kidney tissues are immediately collected, weighed and analyzed. The collected heart, liver, spleen, lung and kidney tissues are analyzed by HE staining.

[3] = Critical micelle concentration by pyrene fluorescence probe spectroscopy; assay type: physicochemical; settings: aqueous solution
From the text: DP7-C can be self-assembled into micelles in aqueous solution. We detected the critical micelle concentration (CMC) of DP7-C by the pyrene fluorescence probe spectroscopy.
The fluorescence emission spectrum of pyrene in aqueous solution has five fluorescence peaks, and the ratio of the first emission spectrum light intensity I1 to the third emission spectrum light intensity I3 in aqueous solution (the ratio of fluorescence intensity at 373 nm to that at 384 nm) is about 1.8. According to the literature, the surfactant may solubilize nonpolar organic compounds, and the surfactant at different concentrations may solubilize pyrene to varying degrees. Thus, the solubilizing ability of the solution will have an obvious mutation point after the concentration of surfactant exceeds the critical micelle concentration (CMC). […] Therefore, the CMC of […] in the solution can be determined by measuring the fluorescence spectra of pyrene in DP7-C solutions with different concentrations. […] Then, detect I1 and I3 by a fluorescence spectrophotometer. Add different volumes of sample mother liquor to BD tubes containing trace pyrene to reach the concentrations of 0.0001, 0.001, 0.01, 0.025, 0.05, 0.10, 0.125, 0.25, 0.5, 1.0 and 1.5 mg/ml respectively, and determine the fluorescence spectra of each solution. […]

multiple strains = assay: Antibacterial activity in vitro (MIC); assay type: cell-based
[4] = tail vein injection, 7 doses, day 20

With `CC[C@H](C)[C@H](NC(=O)[C@H](CCCNC(=N)N)NC(=O)[C@H](Cc1c[nH]c2ccccc12)NC(=O)[C@H](CCC(N)=O)NC(=O)[C@@H](NC(=O)CCC(=O)O[C@H]1CC[C@@]2(C)C(=CC[C@H]3[C@@H]4CC[C@H]([C@H](C)CCCC(C)C)[C@@]4(C)CC[C@@H]32)C1)C(C)C)C(=O)N[C@@H](CCCNC(=N)N)C(=O)N[C@H](C(=O)N[C@@H](C)C(=O)N[C@H](C(=O)N[C@H](C(=O)N[C@@H](CCCNC(=N)N)C(=O)N[C@@H](CCCCN)C(N)=O)[C@@H](C)CC)C(C)C)C(C)C` [DP7-C, Chol-suc-VQWRIRVAVIRK-NH2] ({Succinyl(4-O-cholesteryl)}-VQWRIRVAVIRK-NH2) the “particle size under the electron microscope” value [1] was “about 60 nm”, the “NK cell killing activity” value (YAC-1 cells) was “slightly strong NK cell killing activity” and the “expression of MHC II, CD80 and CD86” value (dendritic cells (DC)) was “increased”. For the same molecule, the “HE staining of major organ tissues” value ([2]; heart, liver, spleen, kidney) was “no significant pathological changes”, the “average number of tumor nodes” value [2, 4] was 132±22 and the “average weight of lung tissue” value [2, 4] was 0.41 ± 0.1 g. For the same molecule, the “critical micelle concentration (CMC)” value [3] was 3.47 µg/mL and the MIC (multiple strains) was greater than 1024 mg/L.
